# Laboratory results taken from patent publication US20150291598A1 (NOVARTIS AG, priority 2012, published 2015).
# Where two headings read alike, the source gives them in different places.
# Experiments:
# [1] = tested on: P. falciparum (NF54 or 3D7 strain); experiment: Assay for P. falciparum proliferation in infected human blood cells (SYBR Green); assay type: cell-based, Plasmodium falciparum; conditions: Plasmodium falciparum, Erythrocyte
# In short: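 NF54 or 3D7 parasites in O+ human erythrocytes at 2.5% hematocrit and 0.3% parasitemia final, exposed to compounds 72 h at 37 °C under 93% N2/4% CO2/3% O2.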
# P. yoelii Sporozoite = experiment: P. yoelii sporozoite invasion assay in HepG2-A16-CD81EGFP liver cells (immunofluorescence quantification of EEFs); assay type: cell-based; conditions: Plasmodium yoelii
# Text: Compounds of the invention can be assayed to measure their capacity to inhibit proliferation of parasites in liver cells. The proliferation is quantified by determine the number of infected cells by immunofluorescence.
# Due to the difficulty of successfully infecting immortalized human liver cell lines with the human malaria sporozoites (liver-stage parasite), rodent malaria sporozoites from Plasmodium yoelii (17XNL) and P. berghei (ANKA) are the preferred surrogate. Sporozoites are obtained from Anopheles stephensi mosquitoes supplied by the New York University Insectary, which ships the malaria-infected mosquitoes 10-13 days following the ingestion of an infective blood meal.
# A transgenic HepG2 cell line expressing the tetraspanin CD81 receptor (HepG2-A16-CD81^EGFP) is used to increase the infectivity rate of rodent-malaria sporozoites into human cells. HepG2-A16-CD81^EGFP cells are stably transformed to express a GFP-CD81 fusion protein. A continuous in vitro culture of this line was maintained at 37° C. in 4% CO2 in complete media (CM) which contains: DMEM (Invitrogen, Carlsbad, USA) supplemented with 10% FCS, 0.29 mg/ml glutamine, 100 units penicillin and 100 μg/ml streptomycin (SigmaAldrich, USA).
# P. yoelii Sporozoite Invasion Assay
# These plates are incubated at 37° C. with 4% CO2 overnight. Two hours prior to infection, 50 nl of compound dissolved in DMSO (0.1% final DMSO concentration per well) were transferred with a PinTool (GNF Systems) into the assay plates (10 μM final concentration). A 1:3 serial dilution of atovaquone (10 μM at the highest final concentration) and wells treated only with DMSO were used as positive and negative controls, respectively.
# Freshly dissected salivary glands from infected mosquitoes were homogenized in a glass tissue grinder, filtered twice through Nylon cell strainers (40 μm pore size, BD Falcon) and counted using a hemocytometer. The assay plate with HepG2-A16-CD81^EGFP cells and compound were then infected with 8×10^3 sporozoites per well and the plates are subjected to a centrifugal force of 650×g to pellet the sporozoites onto the liver cell monolayer. The assay plate is incubated at 37° C. for 2 hours to permit sporozoite invasion, then the media is aspirated from the media plate, and replaced with 50 μl CM (containing a 5× concentration of penicillin/streptomycin; 500 units penicillin and 0.5 mg streptomycin per ml) per well. 50 nl of compound is re-introduced by PinTool and the assay plate incubated for 48 hours at 37° C. before quantification of infected cells by immunofluorescence.
# Atovaquone and uninfected wells were used as controls on each plate. Two replicate plates are tested for each assay.
# Stained EEFs were then quantified using the Opera Confocal High Content Screening System (PerkinElmer, Waltham, USA). Images were collected using a 20× objective lens (20×/0.45 NA, LWD Plan Fluor, Olympus) at a binning of 2, using a 365 nm Xeon arc lamp illumination to detect the Hoechst-labeled nuclei and 635 nm laser line to excite DyLight649-labeled parasites. The image resolution yielded was approximately 0.66 μm/pixel (˜0.43 μm 2/pixel). All images were analyzed using a custom Acapella™ (PerkinElmer) script parametrized for this assay. In brief, images from fields inside the well were first discarded as out-of focus when the intensity in the nuclear channel was too low. Then, HepG2-A16-CD81^EGFP cells were counted by detecting the nuclei labeled with Hoechst using the nuclei detection libraries available with Acapella™. Parasites were later segmented using the αPyHSP70 immuno-labeling signal, using a custom script library. Once the objects were segmented from the picture, morphological-based (e.g. size, roundness, etc) and intensity-based features were measured for each object detected in the image (i.e. nuclei and parasites). Infection ratio was set as the ratio between parasite number and number of nuclei counted in images considered as “in-focus”.
# [2] = 72 h, NF54 or 3D7 infected human erythrocytes, 72 hours, read-out: EC50 (nM), inhibitory efficacy in delaying P. falciparum proliferation in infected human blood cells
# [3] = HepG2-A16-CD81EGFP cells, 48 hours, read-out: EC50 (nM), inhibitory efficacy in delaying the proliferation of P. yoelii sporozoite in infected liver cells
# [4] = 72 h, read-out: EC50 (nM), inhibitory efficacy in delaying P. falciparum proliferation in infected human blood cells
# [5] = read-out: EC50, P. yoelii Sporozoite Invasion Assay
# [6] = infected human red blood cells, read-out: EC50, P. falciparum Proliferation Assay
SMILES,"EC50 [1, 2] [nM]",EC50 (P. yoelii Sporozoite; [3]) [nM],also measured
"CN(C(=O)c1cn2c(-c3ccc(C(N)=O)cc3)cnc2cn1)c1ccc(F)cc1 [Compound 11, 3-(4-carbamoylphenyl)-N-(4-fluorophenyl)-N-methylimidazo[1,2-a]pyrazine-6-carboxamide]",74,56,
"CNC(=O)c1ccc(-c2cnc3cnc(C(=O)N(C)c4ccc(C#N)cc4)cn23)cc1 [Compound 38, N-(4-cyanophenyl)-N-methyl-3-[4-(methylcarbamoyl)phenyl]imidazo[1,2-a]pyrazine-6-carboxamide]",131,290,
"CN(C(=O)c1cn2c(-c3ccc(C(F)(F)F)cc3)cnc2cn1)c1ccc(C#N)cc1 [Compound 76, N-(4-cyanophenyl)-N-methyl-3-[4-(trifluoromethyl)phenyl]imidazo[1,2-a]pyrazine-6-carboxamide]",,263,"EC50 [1, 4]: 35 nM"
"CN(Cc1cn2c(-c3ccc(C(F)(F)F)cc3)cnc2cn1)c1ccc(C#N)cc1 [Compound 213, 4-[methyl({3-[4-(trifluoromethyl)phenyl]imidazo[1,2-a]pyrazin-6-yl}methyl)amino]benzonitrile]",41,14,EC50 (P. yoelii Sporozoite; [5]): < 50 nM
"CN(Cc1cn2c(-c3ccc(C(N)=O)cc3)cnc2cn1)c1ccc(F)cc1 [Compound 222, 4-(6-{[(4-fluorophenyl)(methyl)amino]methyl}imidazo[1,2-a]pyrazin-3-yl)benzamide]",30,7,"EC50 [1, 6]: < 50 nM; EC50 (P. yoelii Sporozoite; [5]): < 50 nM"
"CN(Cc1cn2c(-c3ccc(C(N)=O)cc3)cnc2cn1)c1ccc(C#N)cc1 [Compound 223, 4-(6-{[(4-cyanophenyl)(methyl)amino]methyl}imidazo[1,2-a]pyrazin-3-yl)benzamide]",25,11,EC50 (P. yoelii Sporozoite; [5]): < 50 nM
"CNC(=O)c1ccc(-c2cnc3cnc(C(=O)N(C)c4ccc(Cl)cc4)cn23)cc1 [Compound 228, N-(4-chlorophenyl)-N-methyl-3-[4-(methylcarbamoyl)phenyl]imidazo[1,2-a]pyrazine-6-carboxamide]",,,"EC50 [1, 4]: 58 nM; EC50 (P. yoelii Sporozoite; 48 h, read-out: EC50 (nM), inhibitory efficacy in delaying the proliferation of P. yoelii sporozoite in infected liver cells): 32 nM; EC50 (P. yoelii Sporozoite; [5]): < 50 nM"
"CC(=O)Nc1ccc(-c2cnc3cnc(C(=O)N(C)c4ccc(C#N)cc4)cn23)cn1 [Compound 236, N-(4-cyanophenyl)-3-(6-acetamidopyridin-3-yl)-N-methylimidazo[1,2-a]pyrazine-6-carboxamide]",127,189,
"CN(Cc1cn2c(-c3ccc(C(N)=O)cc3)cnc2cn1)c1ccc(Cl)cc1 [Compound 477, 4-(6-{[(4-chlorophenyl)(methyl)amino]methyl}imidazo[1,2-a]pyrazin-3-yl)benzamide]",9,11,"EC50 [1, 6]: < 50 nM; EC50 (P. yoelii Sporozoite; [5]): < 50 nM"
"CN(C(=O)c1cn2c(-c3ccc(-c4cc[nH]n4)cc3)cnc2cn1)c1ccc(C#N)cc1 [Compound 484, N-(4-cyanophenyl)-N-methyl-3-[4-(1H-pyrazol-3-yl)phenyl]imidazo[1,2-a]pyrazine-6-carboxamide]",20,,
"CC(=O)Nc1ccc(-c2cnc3cnc(C(=O)N(C)c4ccc(C#N)cc4)cn23)cc1 [Compound 485, N-(4-cyanophenyl)-3-(4-acetamidophenyl)-N-methylimidazo[1,2-a]pyrazine-6-carboxamide]",54,,
"CN(C(=O)c1cn2c(-c3ccc4c(cnn4C)c3)cnc2cn1)c1ccc(Cl)nc1 [Compound 489, N-(6-chloropyridin-3-yl)-N-methyl-3-(1-methyl-1H-indazol-5-yl)imidazo[1,2-a]pyrazine-6-carboxamide]",522,,
"CN(C(=O)c1cn2c(-c3ccc(C(F)(F)F)cc3)cnc2cn1)c1cc(F)ccn1 [Compound 490, N-(4-fluoropyridin-2-yl)-N-methyl-3-[4-(trifluoromethyl)phenyl]imidazo[1,2-a]pyrazine-6-carboxamide]",293,,
"COc1ncccc1N(C)C(=O)c1cn2c(-c3ccc(C(F)(F)F)cc3)cnc2cn1 [Compound 492, N-(2-methoxypyridin-3-yl)-N-methyl-3-[4-(trifluoromethyl)phenyl]imidazo[1,2-a]pyrazine-6-carboxamide]",377,,
"CN(C(=O)c1cn2c(-c3ccc(-c4nncs4)cc3)cnc2cn1)c1ccc(C#N)cc1 [Compound 493, N-(4-cyanophenyl)-N-methyl-3-[4-(1,3,4-thiadiazol-2-yl)phenyl]imidazo[1,2-a]pyrazine-6-carboxamide]",529,,
"O=C(c1cn2c(-c3ccc(C(F)(F)F)cc3)cnc2cn1)N1CCS(=O)(=O)c2ccccc21 [Compound 494, (1,1-dioxido-2H-benzo[b][1,4]thiazin-4(3H)-yl)(3-(4-(trifluoromethyl)phenyl)imidazo[1,2-a]pyrazin-6-yl)methanone]",3350,,
"CN(C(=O)c1cn2c(-c3ccc(C(F)(F)F)cc3)cnc2cn1)c1cnc(Cl)s1 [Compound 496, N-(2-chloro-1,3-thiazol-5-yl)-N-methyl-3-[4 (trifluoromethyl)phenyl]imidazo[1,2-a]pyrazine-6-carboxamide]",2840,,
"O=C1CN(C(=O)c2cn3c(-c4ccc(C(F)(F)F)cc4)cnc3cn2)c2ccccc2N1 [Compound 497, 4-({3-[4-(trifluoromethyl)phenyl]imidazo[1,2-a]pyrazin-6-yl}carbonyl)-1,2,3,4-tetrahydroquinoxalin-2-one]",> 9320,,
"CN(C(=O)c1cncnc1)c1cn2c(-c3ccc(C(F)(F)F)cc3)cnc2cn1 [Compound 498, N-methyl-N-{3-[4-(trifluoromethyl)phenyl]imidazo[1,2-a]pyrazin-6-yl}pyrimidine-5-carboxamide]",5690,,
"CN(C(=O)c1cn2c(-c3ccc(C(F)(F)F)cc3)cnc2cn1)c1ccc(-c2ccccc2)nc1 [Compound 499, N-methyl-N-(6-phenylpyridin-3-yl)-3-[4-(trifluoromethyl)phenyl]imidazo[1,2-a]pyrazine-6-carboxamide]",4510,,
"CN(C(=O)c1cn2c(-c3ccc(C(F)(F)F)cc3)cnc2cn1)c1ccc(C(F)(F)F)cc1 [Compound 500, N-methyl-N,3-bis[4-(trifluoromethyl)phenyl]imidazo[1,2-a]pyrazine-6-carboxamide]",353,,
"CN(C(=O)c1cn2c(-c3ccc(C(F)(F)F)cc3)cnc2cn1)c1ccc(S(C)(=O)=O)cc1 [Compound 501, N-(4-methanesulfonylphenyl)-N-methyl-3-[4-(trifluoromethyl)phenyl]imidazo[1,2-a]pyrazine-6-carboxamide]",1450,,
"CN(C(=O)c1cn2c(-c3ccc(C(F)(F)F)cc3)cnc2cn1)c1ccc(C#N)c(Cl)c1 [Compound 502, N-(3-chloro-4-cyanophenyl)-N-methyl-3-[4-(trifluoromethyl)phenyl]imidazo[1,2-a]pyrazine-6-carboxamide]",2000,,
"COc1cc(C#N)ccc1N(C)C(=O)c1cn2c(-c3ccc(C(F)(F)F)cc3)cnc2cn1 [Compound 503, N-(4-cyano-2-methoxyphenyl)-N-methyl-3-[4-(trifluoromethyl)phenyl]imidazo[1,2-a]pyrazine-6-carboxamide]",60,,
